The values that follow come from publication PMC9951290, “Comprehensive Structure–Activity Relationship Studies of Cepafungin Enabled by Biocatalytic C–H Oxidations” (ACS Central Science, 2023).

The target in one assay is T1, proteasome subunit β2 (Homo sapiens, UniProt Q99436).
T1 sequence (Q99436 44-277): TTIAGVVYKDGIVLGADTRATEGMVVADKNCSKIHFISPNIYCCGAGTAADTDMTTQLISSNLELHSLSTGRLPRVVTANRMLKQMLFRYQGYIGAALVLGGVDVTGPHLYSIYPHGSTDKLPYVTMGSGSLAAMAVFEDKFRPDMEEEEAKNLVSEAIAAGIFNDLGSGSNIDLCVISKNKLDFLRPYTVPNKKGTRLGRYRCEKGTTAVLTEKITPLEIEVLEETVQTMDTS
Briefly: In situ β2 proteasome activity assay (Ac-RLR-AMC) in RPMI 8226 cells. Format: cell-based. The settings on record: 6 h, n = 3, Figure 4D. How it is done: Cellular assays were performed on human multiple myeloma RPMI 8226 cells (Figure 4). First, relative inhibition of proteasome subunits β5 and β2 for all analogues and the natural product was measured at 30 nM compound concentration. Following incubation of the compounds in cell culture for 6 h, cells were lysed, and fluorogenic subunit-specific peptide substrates Suc-LLVY-AMC (β5) or Ac-RLR-AMC (β2) were incubated with the lysates; fluorescence readings provided relative proteasome activity levels in comparison with DMSO (Figure 4A). Next, cytotoxicity screening was performed at 30 and 100 nM concentrations for sufficient coverage of dynamic range (Figure 4B). […] Therefore, the improved cytotoxicity of phenyl cepafungin 50 likely results from a more pronounced loss of β5 function in RPMI 8226 cells. This drastic increase in proteasome inhibition may be due to π-stacking of the lipid tail phenyl ring with the β6 subunit residues Tyr106 and/or Tyr5. […]
Mammalian cells were maintained in RPMI-1640 media. […] Cells were lysed by needle sonication to obtain cell lysates and protein concentration was determined using the […]
fluorescence was read at A360ex/A460em. […]
in DMSO) or DMSO and cultured for 48 hours. Toxicity was determined using the WST-1 assay (Roche) according to the protocol of the manufacturer. […]

Assay [1] relates to proteasome subunits β2/2i, β5/5i, β1i, β1. The settings on record: in-gel labeling, cited from earlier work.

The structures appear in SMILES notation.

`CC(C)CCCCCC=CC=CC(=O)NC(C(=O)NC1CC(O)CCNC(=O)C=CC(C)NC1=O)C(C)O` (stereo not drawn) [compound 1, cepafungin I] registered an IC50 against proteasome subunit β2 of 43 nM. In assay [1] (RPMI 8226, even at high concentrations), the “engagement of β1” value is listed as “very little engagement”. In addition, the “competition for subunits β2/2i, β5/5i and β1i” value in assay [1] (RPMI 8226) is “low-nanomolar concentrations”.

A word on the IC50: it is the concentration that inhibits the measured activity by half. High values mean weaker potency, low ones greater potency.
